The subject of test [1] is mono-methyl arginine in RKO cells. As to the kind of experiment: RKO methylation assay (In Cell Western for mono-methyl arginine and DNA content). It is filed as cell-based. The note with it: 72 hours, percent activation of mono-methyl arginine signal normalised to DNA content. The text has this:
RKO adherent cells were purchased from ATCC (American Type Culture Collection), Manassas, Va., USA. DMEM/Glutamax medium, penicillin-streptomycin, heat inactivated fetal bovine serum, 0.05% trypsin and D-PBS were purchased from Life Technologies, Grand Island, N.Y., USA. Odyssey blocking buffer, 800CW goat anti-rabbit IgG (H+L) antibody, and Licor Odyssey infrared scanner were purchased from Licor Biosciences, Lincoln, Nebr., USA. Mono-methyl arginine antibody was purchased from Cell Signaling Technology, Danvers, Mass., USA.
Methanol was purchased from VWR, Franklin, Mass., USA. 10% Tween 20 was purchased from KPL, Inc., Gaithersburg, Md., USA. DRAQ5 was purchased from Biostatus Limited, Leicestershire, UK. […]
First, the ratio for each well was determined by:
Each plate included fourteen control wells of DMSO only treatment (minimum activation) as well as fourteen control wells for maximum activation treated with 20 μM of a reference compound. The average of the ratio values for each control type was calculated and used to determine the percent activation for each test well in the plate. […] Percent activation was determined and EC30 curves were generated using triplicate wells per concentration of compound.

A further test has as its target T1, PRMT1 (Homo sapiens, UniProt Q99873).
T1 construct: GST-tagged PRMT1; made in house; host or cells: High Five insect cells (baculovirus, pFastBacI)
As to the kind of experiment: PRMT1 biochemical assay (3H-SAM Flashplate, histone H4 peptide substrate). The note with it: GST-tagged full-length human PRMT1 0.5 nM, 30 min preincubation, peptide 20 nM. The text has this:
S-adenosylmethionine (SAM), S-adenosylhomocysteine (SAH), bicine, Tween20, dimethylsulfoxide (DMSO), bovine skin gelatin (BSG), and Tris(2-carboxyethyl)phosphine hydrochloride solution (TCEP) were purchased from Sigma-Aldrich at the highest level of purity possible. ^3H-SAM was purchase from American Radiolabeled Chemicals with a specific activity of 80 Ci/mmol. 384-well streptavidin Flashplates were purchased from PerkinElmer.
Peptide representative of human histone H4 residues 36-50 was synthesized with an N-terminal linker-affinity tag motif and a C-terminal amide cap by 21st Century Biochemicals. The peptide was purified by high-performance liquid chromatography (HPLC) to greater than 95% purity and confirmed by liquid chromatography mass spectrometry (LC-MS). The sequence was Biot-Ahx-RLARRGGVKRISGLI-amide (SEQ ID NO.: 1).
Full-length human PRMT1 isoform 1 (NM_001536.5) transcript clone was amplified from an HEK 293 cDNA library, incorporating flanking 5′ sequence encoding a FLAG tag (DYKDDDDK) (SEQ ID NO.:2) fused directly to Met 1 of PRMT1. The amplified gene was subcloned into pFastBacI (Life Technologies) modified to encode an N-terminal GST tag and a TEV cleavage sequence ([…] […] […] […]) (SEQ ID NO.:3) fused to Asp of the Flag tag of PRMT1.
Recombinant baculovirus were generated according to Bac-to-Bac kit instructions (Life Technologies). Protein over-expression was accomplished by infecting exponentially growing High Five insect cell culture at 1.5×10^6 cell/ml with 1:100 ratio of virus. Infections were carried out at 27° C. for 48 hours, harvested by centrifugation, and stored at −80° C. for purification. […]

Where only a bound is given, the exact number is not on record here.

T1 sequence (Q99873 with tags, fused parts or gaps): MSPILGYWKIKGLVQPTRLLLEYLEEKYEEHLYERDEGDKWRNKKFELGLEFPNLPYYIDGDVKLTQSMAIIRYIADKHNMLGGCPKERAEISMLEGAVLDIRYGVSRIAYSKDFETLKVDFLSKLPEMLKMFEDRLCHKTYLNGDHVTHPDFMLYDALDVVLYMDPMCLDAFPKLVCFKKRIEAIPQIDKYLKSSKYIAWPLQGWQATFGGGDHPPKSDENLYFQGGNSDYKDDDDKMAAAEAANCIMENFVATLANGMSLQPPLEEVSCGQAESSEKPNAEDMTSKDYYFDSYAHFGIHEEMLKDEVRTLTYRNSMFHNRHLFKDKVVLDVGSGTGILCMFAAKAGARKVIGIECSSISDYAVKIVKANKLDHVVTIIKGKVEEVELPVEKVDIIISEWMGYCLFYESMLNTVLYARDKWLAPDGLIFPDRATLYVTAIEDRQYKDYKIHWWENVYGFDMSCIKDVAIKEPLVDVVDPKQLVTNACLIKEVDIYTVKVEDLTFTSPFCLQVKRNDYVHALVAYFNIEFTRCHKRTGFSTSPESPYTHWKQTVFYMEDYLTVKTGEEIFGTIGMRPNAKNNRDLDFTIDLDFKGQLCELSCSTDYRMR

Turning to `C=CC(=O)Nc1ccc(-c2[nH]ncc2CN(C)CCNC)cc1` [Compound 2, N-(4-(4-((methyl(2-(methylamino)ethyl)amino)methyl)-1H-pyrazol-3-yl)phenyl)acrylamide], the “In Cell Western EC30” value in test [1] was “C (“C” indicates an EC30 ≧ 12.01 μM)”. The IC50 (as a rule, the midpoint of a concentration-inhibition curve) against PRMT1 lay within 101 to 1000 nM.

Take `C=C(C)C(=O)Nc1ccc(-c2[nH]ncc2CN(C)CCNC)cc1` [Compound 1, N-(4-(4-((methyl(2-(methylamino)ethyl)amino)methyl)-1H-pyrazol-3-yl)phenyl)methacrylamide]: the “In Cell Western EC30” value in test [1] is given as “B (“B” indicates an EC30 of 3.01-12.00 μM)”. The same compound showed an IC50 against PRMT1 of under 100 nM. “3-methyl-N-(3-(4-((methyl (2-(methylamino)ethyl)amino)methyl)-1H-pyrazol-3-yl)phenyl)but-2-enamide [Compound 3]” gave an IC50 against PRMT1 of 101 to 1000 nM.

Values taken from patent publication US9475776B2, “PRMT1 inhibitors and uses thereof” (Epizyme, Inc., priority 2013, dated 2016).
